The target of data set [1] is T1, Carbonic anhydrase 9 (Homo sapiens, UniProt Q16790). Nature of the data set: Inhibition of recombinant human carbonic anhydrase-9 incubated for 15 mins by stopped flow CO2 hydrase assay.
For data set [2], the target named is T2, Carbonic anhydrase 1 (Homo sapiens, UniProt P00915). Nature of the data set: Inhibition of recombinant human carbonic anhydrase-1 incubated for 15 mins by stopped flow CO2 hydrase assay.
In data set [3] the target is T3, Carbonic anhydrase 2 (Homo sapiens, UniProt P00918). Nature of the data set: Inhibition of recombinant human carbonic anhydrase-2 incubated for 15 mins by stopped flow CO2 hydrase assay.
In data set [4] the target is T2, Carbonic anhydrase 1. Nature of the data set: Inhibition of recombinant human carbonic anhydrase-1 at 0.01 uM after 15 mins by stopped flow CO2 hydrase assay (reference value: 0%).
The target of data set [5] is T2, Carbonic anhydrase 1. In words: Inhibition of recombinant human carbonic anhydrase-1 at 0.1 uM after 15 mins by stopped flow CO2 hydrase assay (reference value: 0%).
Data set [6] addresses T2, Carbonic anhydrase 1. Nature of the data set: Inhibition of recombinant human carbonic anhydrase-1 at 1 uM after 15 mins by stopped flow CO2 hydrase assay (reference value: 0%).
Data set [7] concerns the target T2, Carbonic anhydrase 1. In words: Inhibition of recombinant human carbonic anhydrase-1 at 10 uM after 15 mins by stopped flow CO2 hydrase assay (reference value: 0%).
Data set [8] addresses T3, Carbonic anhydrase 2. In words: Inhibition of recombinant human carbonic anhydrase-2 at 0.01 uM after 15 mins by stopped flow CO2 hydrase assay (reference value: 0%).
Data set [9] concerns the target T3, Carbonic anhydrase 2. Nature of the data set: Inhibition of recombinant human carbonic anhydrase-2 at 0.1 uM after 15 mins by stopped flow CO2 hydrase assay (reference value: 0%).
Data set [10] has as its target T3, Carbonic anhydrase 2. Nature of the data set: Inhibition of recombinant human carbonic anhydrase-2 at 1 uM after 15 mins by stopped flow CO2 hydrase assay (reference value: 0%).
The target of data set [11] is T3, Carbonic anhydrase 2. Nature of the data set: Inhibition of recombinant human carbonic anhydrase-2 at 10 uM after 15 mins by stopped flow CO2 hydrase assay (reference value: 0%).
Data set [12] concerns the target T1, Carbonic anhydrase 9. In words: Inhibition of recombinant human carbonic anhydrase-9 at 0.1 nM after 15 mins by stopped flow CO2 hydrase assay (reference value: 0%).
The target of data set [13] is T1, Carbonic anhydrase 9. Conditions: at 1 nM.
Description: Inhibition of recombinant human carbonic anhydrase-9 at 1 nM after 15 mins by stopped flow CO2 hydrase assay (Rvb = 0%)
In data set [14] the target is T1, Carbonic anhydrase 9. Conditions: at 0.01 µM.
Description: Inhibition of recombinant human carbonic anhydrase-9 at 0.01 uM after 15 mins by stopped flow CO2 hydrase assay (Rvb = 0%)
The target of data set [15] is T1, Carbonic anhydrase 9. Conditions: at 0.1 µM.
Description: Inhibition of recombinant human carbonic anhydrase-9 at 0.1 uM after 15 mins by stopped flow CO2 hydrase assay (Rvb = 0%)

SMILES strings stand for the structures.

Results on 32 compounds are retold here after ChEMBL document CHEMBL4312026, “Synthesis, biological and molecular dynamics investigations with a series of triazolopyrimidine/triazole-based benzenesulfonamides as novel carbonic anhydrase inhibitors” (Eur J Med Chem, 2020).

T2 sequence (P00915 whole entry): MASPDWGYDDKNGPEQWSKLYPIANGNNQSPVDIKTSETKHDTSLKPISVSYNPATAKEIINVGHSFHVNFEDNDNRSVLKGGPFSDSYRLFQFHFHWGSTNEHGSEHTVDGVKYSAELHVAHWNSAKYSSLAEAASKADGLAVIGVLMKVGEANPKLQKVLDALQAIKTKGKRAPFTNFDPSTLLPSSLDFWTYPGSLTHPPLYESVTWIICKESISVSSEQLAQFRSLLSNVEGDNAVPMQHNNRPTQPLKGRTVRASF

Turning to `CC(=O)OC[C@@H]1O[C@@H](OCc2cn(-c3ccc(S(N)(=O)=O)cc3)nn2)[C@@H](OC(C)=O)[C@H](OC(C)=O)[C@H]1OC(C)=O`, the Ki at Carbonic anhydrase 9 [1] stood at 9.7 nM.

On to `Cc1cc(=O)n2c(C(=O)N/N=C/c3ccc(N4CCN(C)CC4)cc3)nn(-c3ccc(S(N)(=O)=O)cc3)c2n1`, for which the figures for the Ki at Carbonic anhydrase 1 [2], on Carbonic anhydrase 2 [3] and on Carbonic anhydrase 9 [1] were 4950 nM, 838 nM and 85 nM, respectively.

With `Nc1nc(NC(=O)Nc2ccc(Cl)cc2)nn1-c1ccc(S(N)(=O)=O)cc1`, the inhibitory constant (Ki) on Carbonic anhydrase 1 [2] was found to be 403 nM; at Carbonic anhydrase 2 [3], 9.5 nM; on Carbonic anhydrase 9 [1] it was 43.3 nM.

Take `Nc1nc(NC(=O)Nc2ccc(S(N)(=O)=O)cc2)nn1-c1ccc(S(N)(=O)=O)cc1`: the Ki at Carbonic anhydrase 1 [2] came to 677 nM; at Carbonic anhydrase 2 [3], 78.7 nM; on Carbonic anhydrase 9 [1] it was 28.6 nM.

`Nc1nc(C(=O)NNC(=S)Nc2ccccc2)nn1-c1ccc(S(N)(=O)=O)cc1`: the inhibitory constant (Ki) on Carbonic anhydrase 1 [2] came out at 368 nM; at Carbonic anhydrase 2 [3], 9.7 nM; at Carbonic anhydrase 9 [1] it was 40.2 nM.

Consider `Nc1nc(NC(=O)Nc2ccc(C(=O)O)cc2)nn1-c1ccc(S(N)(=O)=O)cc1`, for which the Ki on Carbonic anhydrase 1 [2] is 507 nM; at Carbonic anhydrase 2 [3] it was 9.6 nM; on Carbonic anhydrase 9 [1], 15.3 nM.

As for `Nc1nc(C(=O)N/N=C/c2ccc(N3CCOCC3)cc2)nn1-c1ccc(S(N)(=O)=O)cc1`, the figures for the Ki on Carbonic anhydrase 1 [2], on Carbonic anhydrase 2 [3] and on Carbonic anhydrase 9 [1] were 988 nM, 64.2 nM and 19.7 nM, respectively.

Turning to `C/C(=N\NC(=O)c1nc(N)n(-c2ccc(S(N)(=O)=O)cc2)n1)c1ccc(N2CCOCC2)cc1`, the inhibitory constant (Ki) at Carbonic anhydrase 1 [2] worked out at 793 nM; on Carbonic anhydrase 2 [3], 53.9 nM; on Carbonic anhydrase 9 [1] it was 31.7 nM.

Regarding `Nc1nc(C(=O)N/N=C/c2cccnc2)nn1-c1ccc(S(N)(=O)=O)cc1`, the figures for the Ki on Carbonic anhydrase 1 [2], on Carbonic anhydrase 2 [3] and at Carbonic anhydrase 9 [1] were 477 nM, 74.2 nM and 6.6 nM, respectively.

As to `Nc1nc(C(=O)N/N=C/c2ccccc2)nn1-c1ccc(S(N)(=O)=O)cc1`, the Ki at Carbonic anhydrase 1 [2] was 771 nM; at Carbonic anhydrase 2 [3], 86.4 nM; on Carbonic anhydrase 9 [1], 41.1 nM.

`C/C(=N\NC(=O)c1nc(N)n(-c2ccc(S(N)(=O)=O)cc2)n1)c1ccccc1`: the values for the Ki at Carbonic anhydrase 1 [2], at Carbonic anhydrase 2 [3] and on Carbonic anhydrase 9 [1] were 633 nM, 8.9 nM and 41.3 nM, respectively.

Regarding `Cc1cc(=O)n2c(C(=O)N/N=C/c3ccccn3)nn(-c3ccc(S(N)(=O)=O)cc3)c2n1`, the results for the inhibition constant Ki on Carbonic anhydrase 1 [2], on Carbonic anhydrase 2 [3] and at Carbonic anhydrase 9 [1] were 3720 nM, 537 nM and 47.9 nM, respectively.

With `COc1ccc(/C=N/NC(=O)c2nn(-c3ccc(S(N)(=O)=O)cc3)c3nc(C)cc(=O)n23)cc1`, the Ki on Carbonic anhydrase 1 [2] is 2380 nM; on Carbonic anhydrase 2 [3], 325 nM; at Carbonic anhydrase 9 [1], 63.2 nM.

In the case of `Nc1nc(C(=O)N/N=C/c2ccc(F)cc2)nn1-c1ccc(S(N)(=O)=O)cc1`, the inhibition constant Ki turned out to be 495 nM on Carbonic anhydrase 1 [2], 65.2 nM at Carbonic anhydrase 2 [3] and 31.5 nM on Carbonic anhydrase 9 [1].

As for `Cc1cc(=O)n2c(C(=O)N/N=C/c3ccncc3)nn(-c3ccc(S(N)(=O)=O)cc3)c2n1`, the inhibition constant Ki on Carbonic anhydrase 1 [2] was found to be 2480 nM; at Carbonic anhydrase 2 [3], 456 nM; at Carbonic anhydrase 9 [1], 24.6 nM.

Take `Nc1nc(C(=O)N/N=C/c2ccc(Cl)cc2)nn1-c1ccc(S(N)(=O)=O)cc1`: the Ki on Carbonic anhydrase 1 [2] worked out at 703 nM; at Carbonic anhydrase 2 [3], 6.9 nM; at Carbonic anhydrase 9 [1], 73.2 nM.

For `Nc1nc(NC(=O)Nc2ccc(F)cc2)nn1-c1ccc(S(N)(=O)=O)cc1`, the results for the Ki at Carbonic anhydrase 1 [2], at Carbonic anhydrase 2 [3] and on Carbonic anhydrase 9 [1] were 94.4 nM, 65.5 nM and 7.8 nM, respectively.

For the compound `Nc1nc(C(=O)NNC(=O)Nc2ccc(Cl)cc2)nn1-c1ccc(S(N)(=O)=O)cc1`, the inhibition constant (Ki) is 537 nM on Carbonic anhydrase 1 [2], 10.9 nM at Carbonic anhydrase 2 [3] and 16.4 nM on Carbonic anhydrase 9 [1].

Take `Nc1nc(C(=O)NNC(=S)Nc2ccc(Cl)cc2)nn1-c1ccc(S(N)(=O)=O)cc1`: the results for the Ki on Carbonic anhydrase 1 [2], on Carbonic anhydrase 2 [3] and at Carbonic anhydrase 9 [1] were 598 nM, 11.1 nM and 16.7 nM, respectively.

Consider `Cc1cc(=O)n2c(C(=O)NN)nn(-c3ccc(S(N)(=O)=O)cc3)c2n1`, for which the values for the inhibition constant (Ki) on Carbonic anhydrase 1 [2], at Carbonic anhydrase 2 [3] and at Carbonic anhydrase 9 [1] were 1680 nM, 74.7 nM and 45.4 nM, respectively.

As to `COc1ccc(NC(=O)Nc2nc(N)n(-c3ccc(S(N)(=O)=O)cc3)n2)cc1`, the values for the inhibitory constant (Ki) at Carbonic anhydrase 1 [2], on Carbonic anhydrase 2 [3] and on Carbonic anhydrase 9 [1] were 695 nM, 127 nM and 3.3 nM, respectively. Further, the inhibition at 0.25 h, 0.01 µM at Carbonic anhydrase 1 [4] amounted to 14%; at Carbonic anhydrase 2 [8], 15%. Moreover, the inhibition at 0.25 h, 0.1 µM was 31% at Carbonic anhydrase 1 [5] and 48% at Carbonic anhydrase 2 [9]. Besides, the inhibition at 0.25 h, 1 µM was determined as 63% on Carbonic anhydrase 1 [6] and 76% on Carbonic anhydrase 2 [10]. Further, the inhibition at 0.25 h, 10 µM on Carbonic anhydrase 1 [7] was found to be 75%; at Carbonic anhydrase 2 [11], 85%. Besides, the inhibition was 18 to 20% at Carbonic anhydrase 9 [12], 45 to 47% on Carbonic anhydrase 9 [13], 72 to 74% at Carbonic anhydrase 9 [14] and 79 to 81% on Carbonic anhydrase 9 [15].

On to `Nc1nc(NC(=O)Nc2ccccc2)nn1-c1ccc(S(N)(=O)=O)cc1`, for which the Ki was found to be 442 nM on Carbonic anhydrase 1 [2], 9.8 nM on Carbonic anhydrase 2 [3] and 8.2 nM on Carbonic anhydrase 9 [1].

Take `Nc1nc(C(=O)N/N=C/c2ccc(N3CCCCC3)cc2)nn1-c1ccc(S(N)(=O)=O)cc1`: the Ki is 825 nM on Carbonic anhydrase 1 [2], 95.4 nM at Carbonic anhydrase 2 [3] and 33 nM on Carbonic anhydrase 9 [1].

On to `COC(=O)c1nn(-c2ccc(S(N)(=O)=O)cc2)c2nc3cc(-c4cccs4)cc(-c4ccc([N+](=O)[O-])cc4)c3c(=O)n12`, for which, at Carbonic anhydrase 9 [1], the Ki was determined as 0.16 nM.

On to `Nc1nc(C(=O)N/N=C/c2ccc([N+](=O)[O-])cc2)nn1-c1ccc(S(N)(=O)=O)cc1`, for which the inhibition constant (Ki) at Carbonic anhydrase 1 [2] was 1540 nM; at Carbonic anhydrase 2 [3] it was 24.7 nM; at Carbonic anhydrase 9 [1] it was 34.4 nM.

With `NS(=O)(=O)c1ccc(-n2nnc(C(=O)N/N=C(/CC(=O)c3ccccn3)C(F)(F)F)c2-c2ccccc2)cc1`, the inhibition constant Ki at Carbonic anhydrase 9 [1] was determined as 0.7 nM.

For the compound `Nc1nc(C(=O)NNC(=O)Nc2ccccc2)nn1-c1ccc(S(N)(=O)=O)cc1`, the inhibition constant Ki on Carbonic anhydrase 1 [2] was found to be 307 nM; at Carbonic anhydrase 2 [3], 70.5 nM; on Carbonic anhydrase 9 [1] it was 4.9 nM.

For the compound `Cc1ccc(NC(=O)Nc2nc(N)n(-c3ccc(S(N)(=O)=O)cc3)n2)cc1`, the results for the Ki on Carbonic anhydrase 1 [2], on Carbonic anhydrase 2 [3] and on Carbonic anhydrase 9 [1] were 313 nM, 42.8 nM and 3.9 nM, respectively.

Turning to `NNC(=O)c1nc(N)n(-c2ccc(S(N)(=O)=O)cc2)n1`, the Ki at Carbonic anhydrase 1 [2] was found to be 523 nM; on Carbonic anhydrase 2 [3], 19.9 nM; on Carbonic anhydrase 9 [1], 22.8 nM.

`CCOC(=O)c1nn(-c2ccc(S(N)(=O)=O)cc2)c2nc(C)cc(=O)n12`: the Ki on Carbonic anhydrase 1 [2] came to 698 nM; at Carbonic anhydrase 2 [3], 85.6 nM; on Carbonic anhydrase 9 [1], 35.9 nM.

Turning to `C/C(=N\NC(=O)c1nc(N)n(-c2ccc(S(N)(=O)=O)cc2)n1)c1ccncc1`, the Ki on Carbonic anhydrase 1 [2] stood at 295 nM; at Carbonic anhydrase 2 [3] it was 8.5 nM; on Carbonic anhydrase 9 [1] it was 5.8 nM.

For the compound `Nc1nc(C(=O)N/N=C/c2ccc(O)cc2)nn1-c1ccc(S(N)(=O)=O)cc1`, the Ki on Carbonic anhydrase 1 [2] amounted to 335 nM; on Carbonic anhydrase 2 [3], 8.8 nM; on Carbonic anhydrase 9 [1] it was 8.3 nM.

As usually defined, the Ki is a measure of affinity in units of concentration, obtained from inhibition or displacement. The term inhibition denotes how much of the control response was suppressed.
